Eleven compounds from the NIST ThermoML archive (doi:10.1021/je0341763) can be followed below.

Numbers after ± are expanded uncertainties.

For series [1] the following is noted: 298.15 K; for surface tension liquid-gas: Pendant drop shape; for mass density: 101.33 kPa, Liquid.
Series [2] can be described thus: xn = mol fraction of the nth substance listed. The conditions noted are these: 298.15 K, Pendant drop shape.

Turning to `Cc1ccccc1C` [1,2-dimethylbenzene], in series [1], the surface tension liquid-gas is listed as 29.35 ± 0.3 mN/m and the mass density came to 875.92 ± 0.42 kg/m3.
Consider `Cc1ccccc1C` [1,2-dimethylbenzene] + CC(C)=O, for which the surface tension liquid-gas in series [2] (x2 = 0.0995) was determined as 29.13 ± 0.3 mN/m; in series [2] (x2 = 0.2016), 28.84 ± 0.3 mN/m; in series [2] (x2 = 0.3047) it was 28.45 ± 0.3 mN/m; in series [2] (x2 = 0.403) it was 28.07 ± 0.29 mN/m; in series [2] (x2 = 0.4999) it was 27.58 ± 0.29 mN/m; in series [2] (x2 = 0.6017) it was 26.99 ± 0.29 mN/m. Besides, the figures for the surface tension liquid-gas in series [2] (x2 = 0.6991), in series [2] (x2 = 0.7998) and in series [2] (x2 = 0.9002) were 26.34 ± 0.28 mN/m, 25.65 ± 0.28 mN/m and 24.86 ± 0.27 mN/m, respectively.
`Cc1cccc(C)c1` [1,3-dimethylbenzene]: in series [1], the surface tension liquid-gas came to 28.36 ± 0.3 mN/m and the mass density came to 859.78 ± 0.49 kg/m3.
With `Cc1cccc(C)c1` [1,3-dimethylbenzene] + CC(C)=O, the surface tension liquid-gas stood at 28.16 ± 0.3 mN/m in series [2] (x2 = 0.1027); 27.95 ± 0.3 mN/m in series [2] (x2 = 0.1996); 27.67 ± 0.29 mN/m in series [2] (x2 = 0.3049); 27.31 ± 0.29 mN/m in series [2] (x2 = 0.4029); 26.91 ± 0.29 mN/m in series [2] (x2 = 0.4993); 26.41 ± 0.28 mN/m in series [2] (x2 = 0.6024). Moreover, the surface tension liquid-gas in series [2] (x2 = 0.7002) stood at 25.86 ± 0.28 mN/m; in series [2] (x2 = 0.801) it was 25.27 ± 0.27 mN/m; in series [2] (x2 = 0.9014), 24.66 ± 0.27 mN/m.
Regarding `Cc1cccc(C)c1` [1,3-dimethylbenzene] + CCC(C)=O, the surface tension liquid-gas in series [2] (x2 = 0.1044) was 27.99 ± 0.3 mN/m; in series [2] (x2 = 0.2015) it was 27.66 ± 0.3 mN/m; in series [2] (x2 = 0.3028) it was 27.29 ± 0.29 mN/m; in series [2] (x2 = 0.4011), 26.93 ± 0.29 mN/m; in series [2] (x2 = 0.5013), 26.53 ± 0.28 mN/m; in series [2] (x2 = 0.6009) it was 26.11 ± 0.28 mN/m. Also, the surface tension liquid-gas in series [2] (x2 = 0.6999) worked out at 25.68 ± 0.28 mN/m; in series [2] (x2 = 0.7999), 25.24 ± 0.27 mN/m; in series [2] (x2 = 0.9), 24.76 ± 0.27 mN/m.
In the case of `Cc1ccc(C)cc1` [1,4-dimethylbenzene], in series [1], the surface tension liquid-gas was 27.89 ± 0.29 mN/m and the mass density is on record as 856.85 ± 0.46 kg/m3.
Regarding `Cc1ccc(C)cc1` [1,4-dimethylbenzene] + CC(C)=O, the surface tension liquid-gas is listed as 27.69 ± 0.29 mN/m in series [2] (x2 = 0.1027); 27.41 ± 0.29 mN/m in series [2] (x2 = 0.2022); 27.11 ± 0.29 mN/m in series [2] (x2 = 0.3029); 26.78 ± 0.28 mN/m in series [2] (x2 = 0.3993); 26.41 ± 0.28 mN/m in series [2] (x2 = 0.5009); 25.98 ± 0.28 mN/m in series [2] (x2 = 0.6006). The surface tension liquid-gas is given as 25.51 ± 0.28 mN/m in series [2] (x2 = 0.7005), 25.03 ± 0.27 mN/m in series [2] (x2 = 0.8002) and 24.51 ± 0.27 mN/m in series [2] (x2 = 0.9007).
For `CC(C)=O` [acetone], in series [1], the surface tension liquid-gas is 24.01 ± 0.26 mN/m and the mass density is 784.39 ± 0.61 kg/m3.
On to `CCC(C)=O` [butanone], for which, in series [1], the surface tension liquid-gas is 24.28 ± 0.27 mN/m and the mass density is given as 799.62 ± 0.57 kg/m3.
Consider `CCC(C)=O` [butanone] + Cc1ccc(C)cc1, for which the surface tension liquid-gas in series [2] (x1 = 0.0999) is 27.58 ± 0.29 mN/m; in series [2] (x1 = 0.2007) it was 27.27 ± 0.29 mN/m; in series [2] (x1 = 0.3001), 26.95 ± 0.29 mN/m; in series [2] (x1 = 0.402) it was 26.62 ± 0.28 mN/m; in series [2] (x1 = 0.5001), 26.28 ± 0.28 mN/m; in series [2] (x1 = 0.6006) it was 25.91 ± 0.28 mN/m. Moreover, the surface tension liquid-gas worked out at 25.51 ± 0.28 mN/m in series [2] (x1 = 0.7009), 25.12 ± 0.27 mN/m in series [2] (x1 = 0.8009) and 24.71 ± 0.27 mN/m in series [2] (x1 = 0.8999).
Take `CCC(C)=O` [butanone] + Cc1ccccc1C: the surface tension liquid-gas in series [2] (x1 = 0.1001) was 29 ± 0.3 mN/m; in series [2] (x1 = 0.2028) it was 28.58 ± 0.3 mN/m; in series [2] (x1 = 0.3001) it was 28.17 ± 0.3 mN/m; in series [2] (x1 = 0.4017), 27.68 ± 0.29 mN/m; in series [2] (x1 = 0.5006), 27.19 ± 0.29 mN/m; in series [2] (x1 = 0.6018) it was 26.65 ± 0.28 mN/m. The surface tension liquid-gas amounted to 26.11 ± 0.28 mN/m in series [2] (x1 = 0.7012), 25.55 ± 0.28 mN/m in series [2] (x1 = 0.8006) and 24.96 ± 0.27 mN/m in series [2] (x1 = 0.8994).
